Data: patent US10287301B2 (Achillion Pharmaceuticals, Inc., priority 2015, dated 2019)
Read-outs that look alike come from different tables or passages of the source. Each block holds one compound with its values, some of them ahead of it.

Target: Human Factor D (Homo sapiens (Human), UniProt P00746)
Assay: Human Factor D Assay
Assay type: biochemical
Outline: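 Serum-purified human Factor D (80 nM final) was preincubated with test compound at various concentrations for 5 min at room temperature in 50 mM Tris, 1M NaCl, pH 7.5. Z-L-Lys-SBzl and DTNB were then added at 100 μM each. IC50 came from nonlinear regression of reaction rates versus compound concentration.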

[1] = Human Factor D, Table 3, read-out: IC50

Chain of Human Factor D (P00746 26-253): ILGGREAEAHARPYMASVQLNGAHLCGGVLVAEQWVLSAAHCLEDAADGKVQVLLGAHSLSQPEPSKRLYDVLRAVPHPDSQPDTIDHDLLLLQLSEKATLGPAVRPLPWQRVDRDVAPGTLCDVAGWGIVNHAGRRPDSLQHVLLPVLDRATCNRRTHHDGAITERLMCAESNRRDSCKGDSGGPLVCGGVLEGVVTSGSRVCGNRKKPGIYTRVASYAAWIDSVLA

Structure (SMILES): CC(=O)c1nn(CC(=O)N2C[C@H](F)C[C@H]2C(=O)Nc2cccc(C(C)C)n2)c2ccc(-c3cnc4cc(C)nn4c3)cc12 [Compound 680, (2S,4R)-1-(2-(3-acetyl-5-(2-methylpyrazolo[1.5-a]pyrimidin-6-yl)-1H-indazol-1-yl)acetyl)-4-fluoro-N-(6-isopropylpyridin-2-yl)pyrrolidine-2-carboxamide]
IC50 [1]: < 1000 nM

Structure (SMILES): CCc1cc2ncc(-c3ccc4c(c3)c(C(C)=O)nn4CC(=O)N3C[C@H](F)C[C@H]3C(=O)Nc3cccc(Br)n3)cn2n1 [Compound 681, (2S,4R)-1-(2-(3-Acetyl-5-(2-ethylpyrazolo[1,5-a]pyrimidin-6-yl)-1H-indazol-1-yl)acetyl)-N-(6-bromopyridin-2-yl)-4-fluoropyrrolidine-2-carboxamide]
IC50 [1]: < 1000 nM

Structure (SMILES): CC(=O)c1nn(CC(=O)N2C[C@H](F)C[C@H]2C(=O)Nc2cccc(Br)n2)c2ccc(-c3cnc4cc(C(C)(C)C)nn4c3)cc12 [Compound 682, (2S,4R)-1-(2-(3-Acetyl-5-(2-(tert-butyl)pyrazolo[1,5-a]pyrimidin-6-yl)-1H-indazol-1-yl)acetyl)-N-(6-bromopyridin-2-yl)-4-fluoropyrrolidine-2-carboxamide]
IC50 [1]: < 1000 nM

Structure (SMILES): CC(=O)c1nn(CC(=O)N2C[C@H](F)C[C@H]2C(=O)Nc2cccc(Br)n2)c2ccc(-c3cnc4cc(F)nn4c3)cc12 [Compound 683, (2S,4R)-1-(2-(3-Acetyl-5-(2-fluoropyrazolo[1,5-a]pyrimidin-6-yl)-1H-indazol-1-yl)acetyl)-N-(6-bromopyridin-2-yl)-4-fluoropyrrolidine-2-carboxamide]
IC50 [1]: < 1000 nM

Structure (SMILES): CC(=O)c1nn(CC(=O)N2C[C@H](F)C[C@H]2C(=O)Nc2cccc(Br)n2)c2ccc(-c3cnc4cc(C(F)(F)F)nn4c3)cc12 [Compound 684, (2S,4R)-1-(2-(3-Acetyl-5-(2-(trifluoromethyl)pyrazolo[1,5-a]pyrimidin-6-yl)-1H-indazol-1-yl)acetyl)-N-(6-bromopyridin-2-yl)-4-fluoropyrrolidine-2-carboxamide]
IC50 [1]: < 1000 nM

Structure (SMILES): CC(=O)c1cn(CC(=O)N2C[C@H](F)C[C@H]2C(=O)NCc2ccccc2)c2ccc(-c3cnc4cc(C)nn4c3)cc12 [Compound 685, (2S,4R)-1-(2-(3-Acetyl-5-(2-methylpyrazolo[1,5-a]pyrimidin-6-yl)-1H-indol-1-yl)acetyl)-N-benzyl-4-fluoropyrrolidine-2-carboxamide]
IC50 [1]: < 1000 nM

Structure (SMILES): CC(=O)c1cn(CC(=O)N2C[C@H](F)C[C@H]2C(=O)NCCc2ccccc2)c2ccc(-c3cnc4cc(C)nn4c3)cc12 [Compound 686, (2S,4R)-1-(2-(3-Acetyl-5-(2-methylpyrazolo[1,5-a]pyrimidin-6-yl)-1H-indol-1-yl)acetyl)-4-fluoro-N-phenethylpyrrolidine-2-carboxamide]
IC50 [1]: < 1000 nM

Structure (SMILES): CC(=O)c1cn(CC(=O)N2C[C@H](F)C[C@H]2C(=O)NCCCc2ccccc2)c2ccc(-c3cnc4cc(C)nn4c3)cc12 [Compound 687, (2S,4R)-1-(2-(3-Acetyl-5-(2-methylpyrazolo[1,5-a]pyrimidin-6-yl)-1H-indol-1-yl)acetyl)-4-fluoro-N-(3-phenylpropyl)pyrrolidine-2-carboxamide]
IC50 [1]: < 1000 nM

Structure (SMILES): CC(=O)c1cn(CC(=O)N2C[C@H](F)C[C@H]2C(=O)NCCCCc2ccccc2)c2ccc(-c3cnc4cc(C)nn4c3)cc12 [Compound 688, (2S,4R)-1-(2-(3-Acetyl-5-(2-methylpyrazolo[1,5-a]pyrimidin-6-yl)-1H-indol-1-yl)acetyl)-4-fluoro-N-(4-phenylbutyl)pyrrolidine-2-carboxamide]
IC50 [1]: < 1000 nM

Structure (SMILES): CC(=O)c1nn(CC(=O)N2C[C@H](F)C[C@H]2C(=O)Nc2cccc(Br)n2)c2ccc(-c3cnn4c3CCC4)cc12 [Compound 693, (2S,4R)-1-(2-(3-Acetyl-5-(5,6-dihydro-4H-pyrrolo[1,2-b]pyrazol-3-yl)-1H-indazol-1-yl)acetyl)-N-(6-bromopyridin-2-yl)-4-fluoropyrrolidine-2-carboxamide]
IC50 [1]: < 1000 nM

Structure (SMILES): Cc1cccc(NC(=O)[C@@H]2[C@H]3CC[C@H](C3)N2C(=O)Cn2cc(C(N)=O)c3cc(-c4cnc5ncccn45)ccc32)n1 [Compound 695, 5-(Imidazo[1,2-a]pyrimidin-3-yl)-1-(2-((1R,3S,4S)-3-(6-methylpyridin-2-ylcarbamoyl)-2-azabicyclo[2.2.1]heptan-2-yl)-2-oxoethyl)-1H-indole-3-carboxamide]
IC50 [1]: > 10000 nM

Structure (SMILES): CC(=O)c1nn(CC(=O)N2C[C@H](F)C[C@H]2C(=O)Nc2cccc(Br)n2)c2ccc(-c3cnn(-c4ncccn4)c3)cc12 [Compound 696, (2S,4R)-1-(2-(3-Acetyl-5-(1-(pyrimidin-2-yl)-1H-pyrazol-4-yl)-1H-indazol-1-yl)acetyl)-N-(6-bromopyridin-2-yl)-4-fluoropyrrolidine-2-carboxamide]
IC50 [1]: < 1000 nM

Structure (SMILES): Cc1cccc(NC(=O)[C@@H]2[C@H]3CC[C@H](C3)N2C(=O)Cn2cc(C(N)=O)c3cc(-c4cnc5n4CCCC5)ccc32)n1 [Compound 698, 1-(2-((1R,3S,4S)-3-(6-Methylpyridin-2-ylcarbamoyl)-2-azabicyclo[2.2.1]heptan-2-yl)-2-oxoethyl)-5-(5,6,7,8-tetrahydroimidazo[1,2-a]pyridin-3-yl)-1H-indole-3-carboxamide]
IC50 [1]: > 10000 nM

Structure (SMILES): CC(=O)c1nn(CC(=O)N2C[C@H](F)C[C@H]2C(=O)Nc2cccc(Br)n2)c2ccc(-c3cnn(-c4ncc(F)cn4)c3)cc12 [Compound 699, (2S,4R)-1-(2-(3-Acetyl-5-(1-(5-fluoropyrimidin-2-yl)-1H-pyrazol-4-yl)-1H-indazol-1-yl)acetyl)-N-(6-bromopyridin-2-yl)-4-fluoropyrrolidine-2-carboxamide]
IC50 [1]: < 1000 nM

Structure (SMILES): CC(=O)c1cn(CCN2C[C@H](F)C[C@H]2C(=O)Nc2cccc(OC(F)(F)F)c2F)c2ccc(-c3cnc4cc(C)nn4c3)cc12 [Compound 701, (2S,4R)-1-(2-(3-Acetyl-5-(2-methylpyrazolo[1,5-a]pyrimidin-6-yl)-1H-indol-1-yl)ethyl)-4-fluoro-N-(2-fluoro-3-(trifluoromethoxy)phenyl)pyrrolidine-2-carboxamide]
IC50 [1]: > 10000 nM

Structure (SMILES): CC(=O)c1nn(CC(=O)N2C[C@H](F)C[C@H]2C(=O)Nc2cccc(Br)n2)c2ccc(-c3cnc(=O)n(C)c3)cc12 [Compound 702, (2S,4R)-1-(2-(3-Acetyl-5-(1-methyl-2-oxo-1,2-dihydropyrimidin-5-yl)-1H-indazol-1-yl)acetyl)-N-(6-bromopyridin-2-yl)-4-fluoropyrrolidine-2-carboxamide]
IC50 [1]: < 1000 nM

Structure (SMILES): Cc1cccc(NC(=O)[C@@H]2[C@H]3CC[C@H](C3)N2C(=O)Cn2cc(C(N)=O)c3cc(-c4n[nH]c5ccsc45)ccc32)n1 [Compound 704, 1-(2-((1R,3S,4S)-3-((6-Methylpyridin-2-yl)carbamoyl)-2-azabicyclo[2.2.1]heptan-2-yl)-2-oxoethyl)-5-(1H-thieno[3,2-c]pyrazol-3-yl)-1H-indole-3-carboxamide]
IC50: > 10000 nM

Structure (SMILES): CC(=O)c1nn(CC(=O)N2CC[C@H]2C(=O)Nc2cccc(C)n2)c2ccc(-c3cnc4n3CCCC4)cc12 [Compound 705, (S)-1-(2-(3-Acetyl-5-(5,6,7,8-tetrahydroimidazo[1,2-a]pyridin-3-yl)-1H-indazol-1-yl)acetyl)-N-(6-methylpyridin-2-yl)azetidine-2-carboxamide]
IC50 [1]: > 10000 nM

Structure (SMILES): CC(=O)c1nn(CC(=O)N2C[C@H](F)C[C@H]2C(=O)Nc2cccc(Br)n2)c2ccc(-c3cnn(C4CC4)c3)cc12 [Compound 706, (2S,4R)-1-(2-(3-Acetyl-5-(1-cyclopropyl-1H-pyrazol-4-yl)-1H-indazol-1-yl)acetyl)-N-(6-bromopyridin-2-yl)-4-fluoropyrrolidine-2-carboxamide]
IC50 [1]: < 1000 nM

Structure (SMILES): CC(=O)c1nn(CC(=O)N2C[C@H](F)C[C@H]2C(=O)Nc2cccc(Br)n2)c2ccc(-c3cn[nH]c3)cc12 [Compound 707, (2S,4R)-1-(2-(3-acetyl-5-(1H-pyrazol-4-yl)-1H-indazol-1-yl)acetyl)-N-(6-bromopyridin-2-yl)-4-fluoropyrrolidine-2-carboxamide]
IC50 [1]: < 1000 nM

Structure (SMILES): CC(=O)c1nn(CC(=O)N2CCC[C@H]2C(=O)Nc2cccc(C)n2)c2ccc(-c3cnc4ncccn34)cc12 [Compound 708, (S)-1-(2-(3-Acetyl-5-(imidazo[1,2-a]pyrimidin-3-yl)-1H-indazol-1-yl)acetyl)-N-(6-methylpyridin-2-yl)pyrrolidine-2-carboxamide]
IC50 [1]: < 1000 nM

Structure (SMILES): CC(=O)c1nn(CC(=O)N2CC[C@H]2C(=O)Nc2cccc(C)n2)c2ccc(-c3cnc4ncccn34)cc12 [Compound 709, (S)-1-(2-(3-Acetyl-5-(imidazo[1,2-a]pyrimidin-3-yl)-1H-indazol-1-yl)acetyl)-N-(6-methylpyridin-2-yl)azetidine-2-carboxamide]
IC50 [1]: < 1000 nM

IC50 [1]: < 1000 nM
Structure (SMILES): CC(=O)n1cc(CC(=O)N2C[C@H](F)C[C@H]2C(=O)Nc2cccc(-c3ccccc3Cl)c2F)c2ccc(-c3cnc(C)nc3)cc21 [Compound 710, (2S,4R)-1-(2-(1-Acetyl-6-(2-methylpyrimidin-5-yl)-1H-indol-3-yl)acetyl)-N-(2′-chloro-2-fluoro-[1,1′-biphenyl]-3-yl)-4-fluoropyrrolidine-2-carboxamide]

IC50 [1]: < 1000 nM
Structure (SMILES): CC(=O)n1cc(CC(=O)N2C[C@H](F)C[C@H]2C(=O)Nc2cccc(Br)n2)c2ccc(-c3cnc(C)nc3)cc21 [Compound 711, (2S,4R)-1-(2-(1-Acetyl-6-(2-methylpyrimidin-5-yl)-1H-indol-3-yl)acetyl)-N-(6-bromopyridin-2-yl)-4-fluoropyrrolidine-2-carboxamide]

IC50 [1]: > 10000 nM
Structure (SMILES): Cc1cccc(NC(=O)[C@@H]2C[C@@H](F)CN2C(=O)Cn2nc(C(N)=O)c3sc(-c4cnc5cc(C)nn5c4)nc32)n1 [Compound 714, 1-(2-((2S,4R)-4-Fluoro-2-(6-methylpyridin-2-ylcarbamoyl)pyrrolidin-1-yl)-2-oxoethyl)-5-(2-methylpyrazolo[1,5-a]pyrimidin-6-yl)-1H-pyrazolo[3,4-d]thiazole-3-carboxamide]
